Literature values in patent US20080262249A1, “Psorospermin and Analogues” (priority 2004, published 2008).

Tests used:
[1] = biological target: T1, topoisomerase II-DNA complex (Drosophila melanogaster, UniProt P15348)
T1 sequence (P15348 1-1447): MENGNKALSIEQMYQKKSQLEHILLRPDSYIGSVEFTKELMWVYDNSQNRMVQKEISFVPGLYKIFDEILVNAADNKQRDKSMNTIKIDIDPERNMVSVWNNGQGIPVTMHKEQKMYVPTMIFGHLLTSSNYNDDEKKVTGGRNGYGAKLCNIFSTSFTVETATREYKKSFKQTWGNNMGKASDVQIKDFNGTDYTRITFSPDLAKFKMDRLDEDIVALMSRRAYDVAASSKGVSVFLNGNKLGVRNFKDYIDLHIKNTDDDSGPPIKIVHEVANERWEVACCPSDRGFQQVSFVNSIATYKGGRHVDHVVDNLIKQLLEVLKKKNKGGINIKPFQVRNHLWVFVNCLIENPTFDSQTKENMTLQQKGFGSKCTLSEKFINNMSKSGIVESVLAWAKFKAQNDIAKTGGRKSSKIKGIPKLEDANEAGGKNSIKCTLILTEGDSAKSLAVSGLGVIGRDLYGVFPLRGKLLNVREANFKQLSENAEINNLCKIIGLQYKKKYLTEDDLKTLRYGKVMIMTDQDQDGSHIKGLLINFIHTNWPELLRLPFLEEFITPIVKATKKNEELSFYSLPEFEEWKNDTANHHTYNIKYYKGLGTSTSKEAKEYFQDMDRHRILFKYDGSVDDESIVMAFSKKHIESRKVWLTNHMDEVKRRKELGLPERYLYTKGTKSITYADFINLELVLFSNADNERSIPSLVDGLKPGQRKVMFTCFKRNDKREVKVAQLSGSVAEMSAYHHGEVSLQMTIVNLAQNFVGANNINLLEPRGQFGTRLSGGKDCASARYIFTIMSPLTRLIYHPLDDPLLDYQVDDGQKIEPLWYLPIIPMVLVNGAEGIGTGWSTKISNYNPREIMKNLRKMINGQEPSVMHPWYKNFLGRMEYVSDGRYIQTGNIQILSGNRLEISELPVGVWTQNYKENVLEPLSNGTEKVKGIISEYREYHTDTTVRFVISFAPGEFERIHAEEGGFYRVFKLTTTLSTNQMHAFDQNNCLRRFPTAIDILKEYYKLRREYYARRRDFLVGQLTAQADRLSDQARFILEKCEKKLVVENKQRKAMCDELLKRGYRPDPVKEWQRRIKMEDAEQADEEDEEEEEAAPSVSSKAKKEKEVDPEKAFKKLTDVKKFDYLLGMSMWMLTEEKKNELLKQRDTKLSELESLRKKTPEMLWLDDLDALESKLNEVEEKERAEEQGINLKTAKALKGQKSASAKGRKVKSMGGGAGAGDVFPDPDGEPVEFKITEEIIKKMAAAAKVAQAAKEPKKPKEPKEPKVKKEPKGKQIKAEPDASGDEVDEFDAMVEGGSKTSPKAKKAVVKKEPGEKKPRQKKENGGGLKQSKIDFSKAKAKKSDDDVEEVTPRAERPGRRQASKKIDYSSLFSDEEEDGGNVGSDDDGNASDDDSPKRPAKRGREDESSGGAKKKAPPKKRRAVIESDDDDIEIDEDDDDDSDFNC

[2] = biological target: T1, topoisomerase II-DNA complex; remark: listed apart in the source

| Compound | effect of increasing topoisomerase II concentration on DNA alkylation ([1]; increasing topoisomerase II concentration) | enhancement of psorospermin alkylation at site A by topoisomerase II ([1]; site A) [fold] | enhancement of psorospermin alkylation at site B by topoisomerase II ([1]; site B, guanine at +4′ position) [fold] | reversibility of stimulated topoisomerase II-induced DNA cleavage ([2]; addition of excess salt) | psorospermin-induced DNA cleavage by topoisomerase II, maximum ([2]; site B, 10 μM drug concentration) [fold] |
| --- | --- | --- | --- | --- | --- |
| C/C=C\C1OC1(C)c1cc(=O)c2c(C)cc3c(c2o1)C(=O)c1c(O)c([C@H]2C[C@](C)(N(C)C)[C@@H](OC(C)=O)[C@@H](C)O2)cc([C@@H]2C[C@H](N(C)C)[C@@H](O)[C@@H](C)O2)c1C3=O (some centres unmarked) [pluramycin, reference compound] | inhibited |  |  |  |  |
| COc1cc2c(c3oc4c(O)cccc4c(=O)c13)C[C@H]([C@@]1(C)CO1)O2 [psorospermin] |  | 3 | 25 | slowly reversed | 3 |
